PubChem BioAssay AID330 (DTP/NCI, 2004)
Several values for one entry are separate records, joined by “and”; a condition that tells them apart may be missing. Equal entries are not always repeated. Inconclusive results and toxic doses are left out. The calls were made as follows: active = survival T/C of 150% or more; inactive = T/C below 125% in these data.

System: P388 leukemia ip, CD2F1 mice, survival T/C
Experiment: NCI In Vivo Anticancer Drug Screen. Data for tumor model P388 Leukemia (intraperitoneal) in CD2F1 (CDF1) mice
Conditions: endpoint: median survival time, higher = longer survival
Outline: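 Mice carrying the transplanted tumor received test compound or vehicle. Survival was recorded in each group, and the value is the treated-group measurement divided by that of the vehicle-treated control group.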

[1] = dose: 60.0 mg/kg/injection, schedule: Q01DX005 (ip), vehicle: saline with Tween-80
[2] = dose: 120.0 mg/kg/injection, schedule: Q01DX005 (ip), vehicle: saline with Tween-80
[3] = dose: 240.0 mg/kg/injection, schedule: Q01DX005 (ip), vehicle: saline with Tween-80
[4] = dose: 50.0 mg/kg/injection, schedule: Q01DX009 (ip), vehicle: Klucel (hydroxypropylcellulose) (HPC)
[5] = dose: 100.0 mg/kg/injection, schedule: Q01DX009 (ip), vehicle: Klucel (hydroxypropylcellulose) (HPC)
[6] = dose: 200.0 mg/kg/injection, schedule: Q01DX009 (ip), vehicle: Klucel (hydroxypropylcellulose) (HPC)
[7] = dose: 50.0 mg/kg/injection, schedule: Q01DX005 (ip), vehicle: saline with Tween-80
[8] = dose: 100.0 mg/kg/injection, schedule: Q01DX005 (ip), vehicle: saline with Tween-80
[9] = dose: 200.0 mg/kg/injection, schedule: Q01DX005 (ip), vehicle: saline with Tween-80
[10] = dose: 50.0 mg/kg/injection, schedule: Q01DX009 (ip), vehicle: saline with Tween-80
[11] = dose: 100.0 mg/kg/injection, schedule: Q01DX009 (ip), vehicle: saline with Tween-80
[12] = dose: 200.0 mg/kg/injection, schedule: Q01DX009 (ip), vehicle: saline with Tween-80
[13] = dose: 50.0 mg/kg/injection, schedule: Q01DX009 (ip), vehicle: saline
[14] = dose: 60.0 mg/kg/injection, schedule: Q01DX005 (ip), vehicle: Klucel (hydroxypropylcellulose) (HPC)

Measured: T/C

NC(=O)CCN1CCCN(CCC(N)=O)CCN(CCC(N)=O)CCCN(CCC(N)=O)CC1
inactive: [1] 102 % of control | [2] 110 % of control | [3] 94 % of control

COc1ccccc1N(CCCO)C(=S)Nc1ccccc1
inactive: dose: 25.0 mg/kg/injection, schedule: Q01DX009 (ip), vehicle: other 105 % of control | dose: 50.0 mg/kg/injection, schedule: Q01DX009 (ip), vehicle: other 110 % of control | dose: 100.0 mg/kg/injection, schedule: Q01DX009 (ip), vehicle: other 122 % of control | dose: 200.0 mg/kg/injection, schedule: Q01DX009 (ip), vehicle: other 111 % of control | dose: 400.0 mg/kg/injection, schedule: Q01DX009 (ip), vehicle: other 111 % of control

COC(=O)c1ccc(SCCC(=O)CNc2nc(N)nc(N)c2[N+](=O)[O-])cc1
inactive: [4] 96 % of control | [5] 93 % of control | [6] 96 % of control

CC(/C=C/c1ccc(Cl)c(Cl)c1)=N\NC(N)=S
inactive: [1] 121 % of control

C=CC(=O)NC1(c2ccccc2)CN2CCC1CC2 (configuration not stated)
inactive: [4] 96 % of control

CCCOc1cc2c(cc1C(C)(C)c1ccc(OC)cc1)OCO2
inactive: dose: 50.0 mg/kg/injection, schedule: Q01DX005 (ip), vehicle: saline + Tween-80 + alcohol 102 % of control | dose: 100.0 mg/kg/injection, schedule: Q01DX005 (ip), vehicle: saline + Tween-80 + alcohol 111 % of control | dose: 200.0 mg/kg/injection, schedule: Q01DX005 (ip), vehicle: saline + Tween-80 + alcohol 95 % of control

Cc1nn(C(=S)S)c(C)c1N=Nc1ccc(O)cc1
inactive: [7] 100 % of control | [8] 102 % of control | [9] 101 % of control

COc1ccc(SC(N(C)C)=[N+](C)C)cc1
inactive: dose: 15.0 mg/kg/injection, schedule: Q01DX005 (ip), vehicle: saline 100 % of control | dose: 30.0 mg/kg/injection, schedule: Q01DX005 (ip), vehicle: saline 100 % of control | dose: 60.0 mg/kg/injection, schedule: Q01DX005 (ip), vehicle: saline 102 % of control and 121 % of control

Cc1[nH]c2ccc(N(C)C)cc2c(=O)c1C
inactive: dose: 12.5 mg/kg/injection, schedule: Q01DX009 (ip), vehicle: Klucel (hydroxypropylcellulose) (HPC) 96 % of control | dose: 25.0 mg/kg/injection, schedule: Q01DX009 (ip), vehicle: Klucel (hydroxypropylcellulose) (HPC) 104 % of control and 107 % of control | [4] 100 % of control and 103 % of control and 123 % of control | [5] 102 % of control and 103 % of control and 107 % of control | [6] 112 % of control

COC(=O)Nc1ccc2c(c1)Cc1cc(NC(=O)OC)ccc1-2
inactive: [7] 94 % of control | [8] 92 % of control | [9] 90 % of control

CCCCCCC(=O)Nc1ncc([N+](=O)[O-])s1
inactive: [4] 106 % of control | [5] 106 % of control | [6] 100 % of control

CCOC(=S)NC(=O)c1ccccc1
inactive: [10] 99 % of control | [11] 108 % of control | [12] 100 % of control

Cc1cnc(Sc2c([N+](=O)[O-])ncn2C)nc1
inactive: [13] 109 % of control | dose: 100.0 mg/kg/injection, schedule: Q01DX009 (ip), vehicle: saline 104 % of control | dose: 200.0 mg/kg/injection, schedule: Q01DX009 (ip), vehicle: saline 109 % of control

S=C(NCCCN1CCN(CCCNC(=S)Nc2c3ccccc3nc3ccccc23)CC1)Nc1c2ccccc2nc2ccccc12
inactive: dose: 6.25 mg/kg/injection, schedule: Q01DX005 (ip), vehicle: saline with Tween-80 98 % of control | dose: 12.5 mg/kg/injection, schedule: Q01DX005 (ip), vehicle: saline with Tween-80 100 % of control and 110 % of control | dose: 25.0 mg/kg/injection, schedule: Q01DX005 (ip), vehicle: saline with Tween-80 114 % of control and 116 % of control | [7] 119 % of control and 120 % of control

CC(C)(C)C1CCC(O)(Cc2ccccc2)CC1 (configuration not stated)
inactive: [7] 101 % of control | [8] 91 % of control | [9] 99 % of control

Clc1ccc2c3c([nH]c2c1)CCc1cncnc1-3
inactive: dose: 100.0 mg/kg/injection, schedule: Q01DX001 (ip), vehicle: Klucel (hydroxypropylcellulose) (HPC) 93 % of control | dose: 200.0 mg/kg/injection, schedule: Q01DX001 (ip), vehicle: Klucel (hydroxypropylcellulose) (HPC) 90 % of control | dose: 400.0 mg/kg/injection, schedule: Q01DX001 (ip), vehicle: Klucel (hydroxypropylcellulose) (HPC) 90 % of control

CN1C(c2ccccc2)=C(C#N)C(=O)CC(c2cccs2)N1C (configuration not stated)
inactive: [1] 96 % of control | [2] 99 % of control | [3] 86 % of control

CCc1ccc(C(=O)N/N=C(\C)[C@]2(O)Cc3c(O)c4c(c(O)c3[C@@H](OC3CC(N)C(O)C(C)O3)C2)C(=O)c2c(OC)cccc2C4=O)cc1 (some centres not stated)
active: dose: 1.0 mg/kg/injection, schedule: Q01DX009 (ip), vehicle: water 154 % of control and 163 % of control | dose: 2.0 mg/kg/injection, schedule: Q01DX009 (ip), vehicle: water 160 % of control and 175 % of control | dose: 4.0 mg/kg/injection, schedule: Q01DX009 (ip), vehicle: water 151 % of control and 175 % of control
inactive: dose: 0.12 mg/kg/injection, schedule: Q01DX009 (ip), vehicle: water 111 % of control | dose: 8.0 mg/kg/injection, schedule: Q01DX009 (ip), vehicle: water 86 % of control and 93 % of control

NC(=O)NC1OC(CO)C(O)C(O)C1O (configuration not stated)
inactive: dose: 100.0 mg/kg/injection, schedule: Q04DX003 (ip), vehicle: saline 95 % of control | dose: 200.0 mg/kg/injection, schedule: Q04DX003 (ip), vehicle: saline 95 % of control | dose: 400.0 mg/kg/injection, schedule: Q04DX003 (ip), vehicle: saline 100 % of control

C[N+](C)(C)C1CCC2CCCCC2C1 (configuration not stated)
inactive: dose: 12.5 mg/kg/injection, schedule: Q04DX003 (ip), vehicle: saline with Tween-80 103 % of control | dose: 25.0 mg/kg/injection, schedule: Q04DX003 (ip), vehicle: saline with Tween-80 100 % of control and 107 % of control and 98 % of control | dose: 50.0 mg/kg/injection, schedule: Q04DX003 (ip), vehicle: saline with Tween-80 100 % of control and 104 % of control and 124 % of control | dose: 100.0 mg/kg/injection, schedule: Q04DX003 (ip), vehicle: saline with Tween-80 98 % of control

OC1CCCC1NC1CCCCC1 (configuration not stated)
inactive: dose: 15.0 mg/kg/injection, schedule: Q01DX005 (ip), vehicle: Klucel (hydroxypropylcellulose) (HPC) 102 % of control | dose: 30.0 mg/kg/injection, schedule: Q01DX005 (ip), vehicle: Klucel (hydroxypropylcellulose) (HPC) 102 % of control | [14] 104 % of control

O=C(O)CCC(=O)NNc1nc2ccccc2s1
inactive: [14] 102 % of control | dose: 120.0 mg/kg/injection, schedule: Q01DX005 (ip), vehicle: Klucel (hydroxypropylcellulose) (HPC) 104 % of control | dose: 240.0 mg/kg/injection, schedule: Q01DX005 (ip), vehicle: Klucel (hydroxypropylcellulose) (HPC) 97 % of control

COc1ccc(CSC(=S)Nc2cc(Cl)c(Cl)cc2Cl)cc1
inactive: dose: 12.5 mg/kg/injection, schedule: Q01DX009 (ip), vehicle: saline 88 % of control | dose: 25.0 mg/kg/injection, schedule: Q01DX009 (ip), vehicle: saline 97 % of control | [13] 99 % of control | dose: 50.0 mg/kg/injection, schedule: Q01DX009 (ip), vehicle: suspension in saline 93 % of control | dose: 100.0 mg/kg/injection, schedule: Q01DX009 (ip), vehicle: suspension in saline 103 % of control

Cn1c(=O)c2c(ncn2-c2ccc(N)cc2Cl)n(C)c1=O
inactive: dose: 25.0 mg/kg/injection, schedule: Q01DX005 (ip), vehicle: distilled water + alcohol 100 % of control | dose: 50.0 mg/kg/injection, schedule: Q01DX005 (ip), vehicle: distilled water + alcohol 100 % of control and 101 % of control | dose: 100.0 mg/kg/injection, schedule: Q01DX005 (ip), vehicle: distilled water + alcohol 104 % of control | dose: 200.0 mg/kg/injection, schedule: Q01DX005 (ip), vehicle: distilled water + alcohol 99 % of control

N#CC(=C1SCS1)[N+](=O)[O-]
inactive: dose: 1.56 mg/kg/injection, schedule: Q01DX009 (ip), vehicle: saline 121 % of control | dose: 3.13 mg/kg/injection, schedule: Q01DX009 (ip), vehicle: saline with Tween-80 121 % of control

CCN(CC)c1cc(-c2ccccc2)oc(=O)c1Cl
inactive: [10] 100 % of control | [11] 93 % of control | [12] 97 % of control

O=C1C[C@@H](c2ccccc2)NCCCCN(O)CCCN1
inactive: dose: 25.0 mg/kg/injection, schedule: Q01DX005 (ip), vehicle: saline 106 % of control | dose: 50.0 mg/kg/injection, schedule: Q01DX005 (ip), vehicle: saline 97 % of control | dose: 100.0 mg/kg/injection, schedule: Q01DX005 (ip), vehicle: saline 100 % of control
